Where two headings read alike, the source gives them in different places.
Key:
[1] = system: L3.6 human pancreatic adeno-carcinoma
Procedure: Pancreatic adenocarcinoma (PA), the fifth most common cause of cancer death in the United States is commonly metastatic and unresectable and is poorly responsive to therapy. […] The in vitro cytotoxicity effect of gemcitabine+/−C6 ceramide versus L3.6 pancreatic cancer cell line were measured using MTT assay. In vivo experiments were performed using SCID/Beige/Taconic male mice, 22-25 g, 6-8 weeks old (Taconic Laboratory, Germantown, N.Y., USA). Mice were inoculated s.c. with 2×106L3.6 PA cells. Four days later mice developed primary tumors and chemotherapy was started. Mice were treated 3 times/week for 4 weeks with i.p. injections of gemcitabine (5.0-10.0-15.0 mg/kg) and C6 ceramide (10.0 mg/kg) or combinations of these drugs. Body weight (BW) and diameters of tumors (TD) were measured every week. Diameters of tumors were used to count the volumes of primary tumors: TV. We also studied percent survival and mean survival time (MST). In these experiments we used the new test: mean rate tumor development (MRTD) which reflects the speed of tumor development and was measured by the formula: MTV/MST.
In vivo experiments utilized SCID/Beige/Taconic male mice inoculated S.C. with 2×106 L3.6 pancreatic cells which were treated 4 days post tumor implant with thrice weekly (3×/wk) intraperitoneal (IP) injections of paclitaxel (P) 3.0 mg/kg, oxaliplatin (OX) 2.5 mg/kg, cisplatin (CP) 2.5 mg/kg, gemcitabine (Gem) 15 mg/kg with or without ceramide 10 mg/kg. Chemotherapy dose levels were based on standardized clinical dosing as modified from in vitro data. […] Maximum tumor volume, tumor weight, body weight and survival were recorded. […] Separate histopathology studies recorded short term effects on tumor necrosis, mitotic index and caspase index.

[2] = system: L3.6 pancreatic cancer cell line
[3] = dose column 10 mg/kg (gemcitabine or ceramide alone; ceramide 10 mg/kg in combination)

| Structure (SMILES) | anti-tumor regression and survival induced by Oxaliplatin and Gemcitabine ([1]; combination therapy) | Tumor Size (cc) ([1]; dose column 10 mg/kg) | Mean Survival Time [1, 3] [days] | anti tumor effects of co-administered drugs ([1]; with Paclitaxel, Doxorubicin, Cisplatin, Oxaliplatin, Gemcitabine) | effect on cytotoxicity induced by low dose cisplatin and oxaliplatin [2] | % Survival @ 3 Weeks ([1]; 3 weeks) [%] | % Survival @ 6 Weeks ([1]; 6 weeks) [%] | Tumor Size (cc) ([1]; dose column 5 mg/kg) | Mean Survival Time ([1]; dose column 5 mg/kg (gemcitabine; ceramide 10 mg/kg in combination)) [days] | Tumor Size (cc) ([1]; dose column 15 mg/kg) | Mean Survival Time ([1]; dose column 15 mg/kg (gemcitabine; ceramide 10 mg/kg in combination)) [days] | Mean Final Tumor Volume ([1]; i.p. 3x/wk from day 4, paclitaxel 3.0, oxaliplatin 2.5, cisplatin 2.5, gemcitabine 15, ceramide 10 mg/kg, observed 6 weeks, in cm³) | Mean Survival Time ([1]; i.p. 3x/wk, paclitaxel 3.0, oxaliplatin 2.5, cisplatin 2.5, gemcitabine 15, ceramide 10 mg/kg) [days] | Mean Body Weight (g) (Time of Death or Sacrifice) ([1]; time of death or sacrifice) |
| --- | --- | --- | --- | --- | --- | --- | --- | --- | --- | --- | --- | --- | --- | --- |
| CCCCCCCCCCCCC/C=C/[C@@H](O)[C@H](CO)NC(=O)CCCCC [Ceramide, N-hexanoyl-D-sphingosine] | significantly enhanced | 0.253 | 27.8 ± 10.2 | augmented the anti tumor effects | parallel effects |  |  |  |  |  |  |  |  |  |
| Nc1ccn([C@@H]2O[C@H](CO)[C@@H](O)C2(F)F)c(=O)n1 [Gemcitabine] |  | 0.376 | 27.8 ± 10.2 |  |  | 40 | 0 | 0.412 | 19.6 ± 3.6 | 0.439 | 23.2 ± 5.9 | 1.10 +/−^ | 22.8 ± 4.5 | 15.6 |

Source: patent US8216607B2, “Combination of ceramide and gemcitabine for inducing cell death and uses thereof in treating cancer” (priority 2008, dated 2012)
